According to patent publication EP0642504B1 (priority 1991, dated 1993):
Marks after values point to notes of the source that are not given here.

Legend:
PAF-Induced Paw Edema = assay: PAF-induced paw edema (water displacement); assay type: in vivo, CD-1 female mice; conditions: for percent inhibition of paw edema: oral, 15 min after PAF (1.0 µg s.c.), vs vehicle treated controls
Experimental: A second model, in which edema is induced by platelet activating factor (PAF), was used to evaluate activity.
(§1) The conditions were based on those reported previously [Calhoun et al., ibid.]. […] PAF (1.0 µg) or arachidonic acid (1.0 mg) dissolved in 50 µl of 5% ethanol in saline, were injected s.c. into the plantar surface of the right hind paw of CD-1 female mice (20-25 g) obtained from Charles River Labs. The mice were under ether anesthesia during this procedure. The volume of the right foot was measured to the level of the lateral malleous by water displacement before treatment and 15 min after PAF injection or 30 min after archidonate injection. The change in paw volume was calculated for each mouse and the significance for each group was determined by a paired t test analysis.

peritoneal leukocytes = assay: Leukocyte adhesion assay, peritoneal cells collected after oral dosing; assay type: in vivo, CD-1 mice
Experimental: Leukocytes are thought to be major contributors to the inflammatory response and their ability in this regard is reflected by their adhesiveness to a variety of substrates [Audette, C.A., et al., Life Sci., 47, 753 (1990)].
The details of the leukocytes adhesion assay have been previously reported [Audette et al., ibid.]. In brief, peritoneal cells from femals CD-1 mice (20-25 g) were collected at 90 min following oral administration of the drug or vehicle (50 µl peanut oil). Cells from each treatment group (N=3) were pooled and equal numbers aliquoted into six culture dish wells (1.9 cm^2 area). After incubation for 18-20 hours, non-adhering cells were removed and the remaining cell monolayer quantitated by DNA measurement.

mouse [1] = assay: Mouse hot plate test (55°C) for antinociception; assay type: in vivo
Experimental: In the hot plate test for analgesia an aluminum surface was maintained at 55 ± 1°C by circulating water through passages in the metal. A clear plastic cylinder 18 cm in diameter and 26 cm high was placed on the surface to prevent escape. The end point was taken when the mouse either performed a hind paw lick or jumped off the surface; in no case were the animals kept for more than 30 secs on the plate. Mice were never used more than one time; control values were always measured at 11 a.m. and test values at 2 p.m. The drugs were administered orally 90 min before the hot plate test. The percent change in response time (latency) was calculated by comparing the mean of the control values with the mean of the test values and statistical signficance determined by a paired t-test analysis using software (Statview, 512) from Brainpower, Inc., Calabasas, Ca.

[2] = system: picrotoxin induced lethality; assay: Protection against picrotoxin induced lethality; assay type: in vivo, Balb/c male mice; conditions: drug 10 mg/kg, 120 min before picrotoxin (8 mg/kg) s.c.; no drug 0/17
Excerpt: (§2) The present compounds are active in several tests generally used to indicate neuroprotection.

[3] = system: N-methyl-D-aspartate (NMDA) induced lethality; assay: Protection against NMDA induced lethality; assay type: in vivo, Balb/c male mice; conditions: drug 10 mg/kg, 90 min before NMDA (125 mg/kg) s.c.; no drug 0/20
Excerpt: as §2

[4] = system: forebrain ischemia (unilateral occlusion); assay: Forebrain ischemia (unilateral occlusion); assay type: in vivo; conditions: mongolian gerbils
Excerpt: as §2

[5] = system: Arachidonic Acid-Induced Paw Edema; assay: Arachidonic acid-induced paw edema (water displacement); assay type: in vivo, CD-1 female mice; conditions: for percent inhibition of paw edema: oral, 30 min after arachidonic acid (1.0 mg s.c.), vs vehicle treated controls
Experimental: The induction of paw edema in rodents by injection of arachidonic acid has been used as an experimental model for inflammation [Calhoun, W., et al., Agents and Actions, 21, 306 (1987)]. Prior administration of non-steroidal anti-inflammatory drugs (NSAIDs) in many cases leads to a dose related inhibition of the edematous response which may be considered a predictor of clinical efficacy.
as §1

mouse [6] = assay: Ring test for cataleptic effects; assay type: in vivo; conditions: 5-min test period, vehicle 7.7 ± 4.4
Experimental: The lack of CNS activity for the compounds described herein may be seen from the data shown in Table V. This was measured by the so-called "ring test" [Pertwee, R.G., et al., J. Pharmacol., 46, 753 (1972)] in which the cataleptic effects of cannabinoids can be quantitated. The compounds produced little or no response when compared with the parent drug.
The cataleptic response was measured using the ring test. Mice were placed on a horizontal wire ring 5.5 cm in diameter, which was attached to a 16 cm vertical rod. The hind paws and fore paws were placed at opposite sides of the ring. It is important that the ambient temperature is maintained at 30°C and that the environment be free of auditory stimuli and bright lights. The criteria for immobility are detailed by Pertwee. The response is calculated as the fraction of time the mouse is immobile over a 5-min test period. Measurements were always done between 2 and 4 p.m. and the animals were used only once.

intraocular pressure = assay: Reduction of intraocular pressure (anti-glaucoma activity); assay type: in vivo, rabbits; conditions: 50 µl drop of a 1% emulsion into the rabbit eye
Experimental: Reduction of intraocular pressure in rabbits was determined by the addition of a 50 µl drop of a 1% emulsion of the cannabinoid into the rabbit eye. This test is a measure of anti-glaucomatic activity.

[7] = dose 0.05 mg/kg oral, cells collected 90 min after administration
[8] = dose 0.05 mg/kg oral, cells collected 90 min after administration, 18-20 hours incubation
[9] = dose 0.10 mg/kg oral, cells collected 90 min after administration
[10] = dose 0.10 mg/kg oral, cells collected 90 min after administration, 18-20 hours incubation
[11] = dose 0.50 mg/kg oral, cells collected 90 min after administration
[12] = dose 0.50 mg/kg oral, cells collected 90 min after administration, 18-20 hours incubation
[13] = dose 1.00 mg/kg oral, cells collected 90 min after administration
[14] = dose 1.00 mg/kg oral, cells collected 90 min after administration, 18-20 hours incubation
[15] = dose 0.25 mg/kg orally 90 min before the hot plate test
[16] = dose 0.50 mg/kg orally 90 min before the hot plate test
[17] = dose 1.0 mg/kg orally 90 min before the hot plate test

With `CCCCCCC(C)(C)c1cc(O)c2c(c1)OC(C)(C)[C@H]1CC=C(CO)C[C@H]21` [HU-211, reference compound] as the compound, how does the “percent inhibition of paw edema” value (PAF-Induced Paw Edema; dose 0.5 mg/kg) read?
Its value is 37.5%.

What about the “percent inhibition of paw edema” value (PAF-Induced Paw Edema; dose 1.0 mg/kg) of the same compound?
Its value is 21.9%.

What about the “adhering cells, percent of control” value (peritoneal leukocytes; [7]) of the same compound?
The value was 124% of control.

What about the “number of adhering cells x 10^-6 ± S.D.” value (peritoneal leukocytes; [8]) of the same compound?
The value was 1.09±0.08 x 10^-6.

And the “adhering cells, percent of control” value (peritoneal leukocytes; [9])?
The value was 50% of control.

What about the “number of adhering cells x 10^-6 ± S.D.” value (peritoneal leukocytes; [10]) of the same compound?
Its value is 0.44±0.03 x 10^-6.

What about the “adhering cells, percent of control” value (peritoneal leukocytes; [11]) of the same compound?
Its value is 73% of control.

What about the “number of adhering cells x 10^-6 ± S.D.” value (peritoneal leukocytes; [12]) of the same compound?
Its value is 0.64±0.06 x 10^-6.

And the “adhering cells, percent of control” value (peritoneal leukocytes; [13])?
The value was 67% of control.

And the “number of adhering cells x 10^-6 ± S.D.” value (peritoneal leukocytes; [14])?
The value was 0.59±0.06 x 10^-6.

And the “percent change in latency” value (mouse [1]; [15])?
The value was 30.0(5)* percent.

What about the “percent change in latency” value (mouse [1]; [16]) of the same compound?
The value was 72.5(5)*** percent.

What about the “percent change in latency” value (mouse [1]; [17]) of the same compound?
The value was -10.2(5) percent.

What about the “Survival rate (number of survivors out of total number of animals used)” value [2] of the same compound?
Its value is 6/10.

What about the “Survival rate (number of survivors out of total number of animals used)” value [3] of the same compound?
Its value is 11/16.

And the “protection against forebrain ischemia” value [4]?
Its value is “protect against forebrain ischemia”.

Which results are given for `CCCCCCC(C)(C)c1cc(O)c2c(c1)OC(C)(C)[C@H]1CC=C(C(=O)O)C[C@H]21` [HU-235]?
reduction of paw edema (result in words) ([5]; arachidonic acid model, summary of Table 1): effective in reducing paw edema; percent inhibition of paw edema ([5]; dose 0.050 mg.kg): 42.1 (N.S.) percent; percent inhibition of paw edema ([5]; dose 0.100 mg.kg): 65.8* percent; percent inhibition of paw edema ([5]; dose 0.250 mg.kg): 52.6* percent; percent inhibition of paw edema ([5]; dose 0.55 mg.kg): 47.4%; percent inhibition of paw edema (PAF-Induced Paw Edema; dose 0.05 mg/kg): 44.4 (N.S.) percent; percent inhibition of paw edema (PAF-Induced Paw Edema; dose 0.10 mg/kg): 38.7* percent; percent inhibition of paw edema (PAF-Induced Paw Edema; dose 0.25 mg/kg): 31.9* percent; percent inhibition of paw edema (PAF-Induced Paw Edema; dose 0.5 mg/kg): 60.1* percent; activity against PAF-induced edema (result in words) (PAF-Induced Paw Edema; summary of Table II): active; adhering cells, percent of control (peritoneal leukocytes; dose 0.01 mg/kg oral, cells collected 90 min after administration): 106% of control; number of adhering cells x 10^-6 ± S.D. (peritoneal leukocytes; dose 0.01 mg/kg oral, cells collected 90 min after administration, 18-20 hours incubation): 1.34±0.14 x 10^-6; adhering cells, percent of control (peritoneal leukocytes; [7]): 102% of control; number of adhering cells x 10^-6 ± S.D. (peritoneal leukocytes; [8]): 1.29±0.05 x 10^-6; adhering cells, percent of control (peritoneal leukocytes; [9]): 110% of control; number of adhering cells x 10^-6 ± S.D. (peritoneal leukocytes; [10]): 1.38±0.17 x 10^-6; adhering cells, percent of control (peritoneal leukocytes; [11]): 116% of control; number of adhering cells x 10^-6 ± S.D. (peritoneal leukocytes; [12]): 1.46±0.05 x 10^-6; adhering cells, percent of control (peritoneal leukocytes; [13]): 56% of control; number of adhering cells x 10^-6 ± S.D. (peritoneal leukocytes; [14]): 0.70±0.12 x 10^-6; percent change in latency (mouse [1]; dose 0.025 mg/kg orally 90 min before the hot plate test): 10.3(5) percent; percent change in latency (mouse [1]; dose 0.050 mg/kg orally 90 min before the hot plate test): 61.7(5)* percent; percent change in latency (mouse [1]; dose 0.10 mg/kg orally 90 min before the hot plate test): 49.5(20)* percent; percent change in latency (mouse [1]; [15]): 61.5(17)** percent; percent change in latency (mouse [1]; [16]): 51.7(8)* percent; percent change in latency (mouse [1]; [17]): 14.7(5) percent; Response ± SD (means of the fraction of time the mice remained immobile) (mouse [6]; dose 0.25 mg/kg): 12.3 ± 10.3; Response ± SD (means of the fraction of time the mice remained immobile) (mouse [6]; dose 0.5 mg/kg): 13.8 ± 7.9; Response ± SD (means of the fraction of time the mice remained immobile) (mouse [6]; dose 1.0 mg/kg): 10.4 ± 10.6; Response ± SD (means of the fraction of time the mice remained immobile) (mouse [6]; dose 4.0 mg/kg): 8.7 ± 5.6; Survival rate (number of survivors out of total number of animals used) [2]: 8/12; Survival rate (number of survivors out of total number of animals used) [3]: 7/10; protection against forebrain ischemia [4]: protect against forebrain ischemia; Reduction of intraocular pressure (intraocular pressure): Significant reduction

`CCCCCc1cc(O)c2c(c1)OC(C)(C)[C@@H]1CCC(C)=C[C@@H]21` [Δ^1-THC, reference compound] was tested. Which “Response ± SD (means of the fraction of time the mice remained immobile)” value (mouse [6]; dose 40 mg/kg) did it give?
The value was 48.9 ± 16.

Which “percent inhibition of paw edema” value (PAF-Induced Paw Edema; dose 40.0 mg/kg) does the source give for `CCCCCc1cc(O)c2c(c1)OC(C)(C)[C@@H]1CC=C(C(=O)O)C[C@@H]21` [Δ^6-THC-7-oic acid, reference compound] here?
The value was 50.2%.

With THC-7-oic Acid [reference compound] as the compound, how does the “number of adhering cells x 10^-6 ± S.D.” value (peritoneal leukocytes; dose 20 mg/kg oral, cells collected 90 min after administration, own control 0.81±0.03) read?
The value was 0.67±0.02 x 10^-6.

What about the “adhering cells, percent of control” value (peritoneal leukocytes; dose 20 mg/kg oral, own control 0.81±0.03) of the same compound?
The value was 90.6% of control.

And the “number of adhering cells x 10^-6 ± S.D.” value (peritoneal leukocytes; dose 40 mg/kg oral, cells collected 90 min after administration, own control 0.81±0.03)?
The value was 0.55±0.22 x 10^-6.

And the “adhering cells, percent of control” value (peritoneal leukocytes; dose 40 mg/kg oral, own control 0.81±0.03)?
The value was 67.9% of control.
